Assays:
[1] = system: human KRAS^G12C NSCLC NCI-H2122 xenograft tumors; experiment: NCI-H2122 xenograft, Compound A plus RMC-6291 combination; assay type: in vivo; conditions: immune-deficient mice; repeated daily oral administration
Method: The antitumor activity of Compound A in combination with RMC-6291 was evaluated using immune-deficient mice bearing human KRAS^G12C NSCLC NCI-H2122 xenograft tumors.

[2] = system: KRAS^G12X PDAC; experiment: Phase 1/1b study: tumor response per RECIST v1.1 in PDAC; assay type: in vivo, human
Method: FIG. 5 is a waterfall plot showing the best response in KRAS^G12X PDAC.
(§1) Subjects are assessed for response using Response Evaluation Criteria in Solid Tumors (version 1.1) (RECIST [v1.1]). All subjects with previous or current, known or suspected brain metastases must have a magnetic resonance imaging (MRI) of the brain (unless contraindicated) performed within 28 days prior to the first dose of Compound A (C1D1). Disease response for clinical management of subjects is assessed per RECIST (v1.1).

[3] = Phase 1/1b study of Compound A: safety, treatment-related adverse events; assay type: in vivo, human
Method: This Example describes the study design of a Phase 1/1b study of Compound A in patients with advanced solid tumors harboring specific mutations in RAS with the first patient dosed in June 2022. There are 2 parts planned in this study: Part 1: Dose Escalation and Part 2: Dose Expansion. In the Dose Escalation Phase, safety/tolerability and pharmacokinetics (PK) are assessed, and one or more candidate recommended phase 2 dose and schedule (RP2DS) for further testing in the second part of the study is determined. Enrollment in the Dose Expansion Phase begins after determination of a candidate RP2DS. Part 2 of the study further evaluates the safety/tolerability, PK, and preliminary antitumor effects within specific histotypes. Dose Expansion/Dose Optimization cohorts include RAS-mutant advanced solid tumors with specific histotypes/genotypes (including, but not limited to, NSCLC, PDAC, CRC, melanoma, gynecological cancers, other solid tumors.
Safety assessments and procedures were performed. Real-time safety monitoring was performed to ensure that the protocol-specified dose modification guidelines are followed. In addition, C1 safety and available PK and pharmacodynamic data was reviewed and evaluated at each Compound A dose level/schedule to determine whether enrollment into the next higher dose-level cohort may proceed. A modified schedule can be evaluated in which Compound A may be administered more or less frequently than once daily (QD). The totality of the data from dose escalation cohorts was reviewed and one or more candidate RP2DS for expansion in Part 2 recommended.
(§2) Compound A was administered PO QD at the following dose levels until disease progression or unacceptable toxicity: 10, 20, 40, 80, 120, 160, 220, 300, 400, and 500 mg. Progression to the next Cohort and dose level may stop if DLT is observed at a lower dose level. Other dose levels not specified but within the range listed above may also be permitted based on emergent safety and PK data.
As of Sep. 11, 2023, 131 patients received Compound A at dose levels from 10 to 400 mg QD. The majority of patients had pancreatic cancer, non-small cell lung cancer, or colorectal cancer. The most common (≥10% of patients) treatment-related adverse events (TRAEs) were rash and gastrointestinal (GI)-related toxicities that were all Grade 1 or 2 in severity. Most rashes were acneiform or maculopapular, consistent with known on-target rash presentation from other RAS pathway inhibitors. […] The most common GI-related toxicities were nausea, diarrhea, and vomiting that were manageable with standard supportive care. The median duration of treatment at the time of the data extraction was 2.27 months.

[4] = system: multiple human cancer cell lines; experiment: Growth suppression and apoptosis in cancer cell lines in vitro; assay type: cell-based
From the text: (§3) As described herein, Compound A is a potent, orally (PO) bioavailable RAS(ON) multi-selective inhibitor, selective for the active guanosine-5′-triphosphate (GTP)-bound state (RAS(ON)) of both mutant and wild-type variants of the canonical RAS isoforms (KRAS, NRAS, and HRAS) over other members of the RAS superfamily and other cellular targets. […] Binding of Compound A to CypA results in an inhibitory complex that binds RAS(ON), forming a high-affinity tri-complex that suppresses RAS signaling by disrupting interactions with effectors.

[5] = system: human xenograft models with KRAS^G12X mutations; experiment: Human xenograft tumor models in mice; assay type: in vivo; conditions: for Tumor regressions in xenograft models: mice
From the text: as §3
(§4) Dose levels greater than or equal to 80 mg achieved exposures that induced tumor regressions in human xenograft models with KRAS^G12X mutations in mice (FIG. 3).

[6] = system: KRAS^G12V ovarian cancer; experiment: Phase 1/1b study: tumor response in ovarian cancer case; assay type: in vivo, human; conditions: one patient; 10 mg QD, escalated to 40 mg QD at C7 and 80 mg QD at C10; at cycle 13
Method: as §1
person diagnosed with stage III ovarian cancer in 2004 and later with metastatic disease to the liver and peritoneum. The patient had received 2 prior therapies; Surgery; and carboplatin/paclitaxel. […] The patient was dose escalated to 40 mg QD at C7 and then to 80 mg QD at C10.

[7] = Phase 1/1b study: steady-state blood PK; assay type: in vivo, human; conditions: PO QD
From the text: FIG. 3 graphically depicts the mean steady-state blood PK profiles and individual steady-state blood AUC.
(§5) Whole-blood samples are collected from all subjects to measure Compound A concentrations, circulating tumor deoxyribonucleic acid (ctDNA) and other biomarkers. Samples for pharmacodynamic assays collected in Cycle 1 and beyond. Paired pretreatment and on treatment fresh tumor samples can optionally be collected from any subject if consent is obtained and at the discretion of the treating physician. Optional collection of pre-study treatment fresh biopsy should be performed prior to C1D1 dosing. An optional on-study treatment biopsy can be obtained with subject consent and at the discretion of the treating physician. The primary purpose of the optional on-study treatment biopsies is to assess pharmacodynamic markers and previously acquired pre-study treatment markers of resistance. Biopsy assessment with study intervention treatment over time may also help with better understanding of the shift in mutational profile with study treatment, as well as cellular clonality changes over time. Where tumor tissue allows, predictive biomarkers of response may be explored.
as §2, §4

[8] = system: KRAS^G12X VAF in ctDNA; experiment: KRAS variant allele frequency in ctDNA (Guardant Health ctDNA test); assay type: in vivo, human
From the text: Lines inside box plots indicate median values; whiskers indicate largest or smallest value (at most±1.5× the interquartile range). Circles indicate data points >1.5 times the interquartile range; KRAS^G12X VAF at Cycle 1 Day 1 (pre-treatment) to Cycle 2 Day 1 or Cycle 3 Day 1 (on-treatment) determined by Guardant Health ctDNA test. ctDNA, circulating tumor DNA; VAF, variant allele frequency.
as §5, with “Biopsy assessment with study intervention treatment over time may also help with better understanding of the shift in mutational profile with study treatment, as well as cellular clonality changes over time. Where tumor tissue allows, predictive biomarkers of response may be explored.” left out
Patients with NSCLC and PDAC evaluated for molecular responses were dosed at 20-300 mg QD. […]

[9] = system: KRAS^G12X NSCLC; experiment: Phase 1/1b study: tumor response per RECIST v1.1 in NSCLC; assay type: in vivo, human
Method: FIG. 4 is a waterfall plot showing the best response in KRAS^G12X NSCLC.
as §1

[10] = KRAS G12X PDAC, 80 mg QD to 400 mg QD, RECIST v1.1, FIG. 5
[11] = one patient, 80 mg QD, at cycle 5
[12] = Total (N = 131), 10 to 400 mg QD, as of Sep. 11, 2023
[13] = Total (N = 131), 10 to 400 mg QD, post-data extraction associated with biliary obstruction, reported as unrelated to Compound A
[14] = KRAS G12X NSCLC, 80 mg QD to 400 mg QD, RECIST v1.1, FIG. 4

## CCn1c(-c2cc(N3CCN(C)CC3)cnc2[C@H](C)OC)c2c3cc(ccc31)-c1csc(n1)C[C@H](NC(=O)[C@H]1C[C@@H]1C)C(=O)N1CCC[C@H](N1)C(=O)OCC(C)(C)C2 [Compound A]
[1]
  Mean tumor regression: mean tumor regressions were not achieved
[2]; [10]
  Disease control rate: 87%
  Overall response rate: 20%
[2]; [11]
  Response, case report KRAS^G12D PDAC: confirmed partial response
[2]; one patient, 160 mg QD, at week 6
  Response, case report KRAS^G12R PDAC: confirmed partial response
[3]; 131 patients, 10 to 400 mg QD
  Dose dependence of rash: Rash frequency, but not severity, was dose-dependent
  Fatal TRAEs: No fatal TRAEs
  Severity of the most common (≥10% of patients) TRAEs (rash and GI-related toxicities): Grade 1 or 2
[3]; [12]
  ALT elevation TRAE, Any Grade: 8 (6) n(%)
  ALT elevation TRAE, maximum severity Grade 1: 6 (5) n(%)
  ALT elevation TRAE, maximum severity Grade 2: 1 (1) n(%)
  ALT elevation TRAE, maximum severity Grade 4: 0 n(%)
  AST elevation TRAE, Any Grade: 7 (5) n(%)
  AST elevation TRAE, maximum severity Grade 1: 6 (5) n(%)
  AST elevation TRAE, maximum severity Grade 2: 0 n(%)
  AST elevation TRAE, maximum severity Grade 4: 0 n(%)
  Diarrhea TRAE, Any Grade: 42 (32) n (%)
  Diarrhea TRAE, maximum severity Grade 1: 32 (24) n (%)
  Diarrhea TRAE, maximum severity Grade 2: 9 (7) n (%)
  Diarrhea TRAE, maximum severity Grade 3: 1 (1) n (%)
  Diarrhea TRAE, maximum severity Grade 4: 0 n (%)
  Electrocardiogram QT prolonged TRAE, Any Grade: 1 (1) n(%)
  Electrocardiogram QT prolonged TRAE, maximum severity Grade 1: 1 (1) n(%)
  Electrocardiogram QT prolonged TRAE, maximum severity Grade 2: 0 n(%)
  Electrocardiogram QT prolonged TRAE, maximum severity Grade 3: 0 n(%)
  Electrocardiogram QT prolonged TRAE, maximum severity Grade 4: 0 n(%)
  Fatigue TRAE, Any Grade: 16 (12) n (%)
  Fatigue TRAE, maximum severity Grade 1: 12 (9) n (%)
  Fatigue TRAE, maximum severity Grade 2: 4 (3) n (%)
  Fatigue TRAE, maximum severity Grade 3: 0 n (%)
  Fatigue TRAE, maximum severity Grade 4: 0 n (%)
  Nausea TRAE, Any Grade: 55 (42 n (%)
  Nausea TRAE, maximum severity Grade 1: 41 (31) n (%)
  Nausea TRAE, maximum severity Grade 2: 14 (11) n (%)
  Nausea TRAE, maximum severity Grade 3: 0 n (%)
  Nausea TRAE, maximum severity Grade 4: 0 n (%)
  Rash* TRAE, Any Grade: 92 (70) n (%)
  Rash* TRAE, maximum severity Grade 1: 57 (44) n (%)
  Rash* TRAE, maximum severity Grade 2: 29 (22) n (%)
  Rash* TRAE, maximum severity Grade 3: 6 (5) n (%)
  Rash* TRAE, maximum severity Grade 4: 0 n (%)
  Stomatitis TRAE, Any Grade: 21 (16) n (%)
  Stomatitis TRAE, maximum severity Grade 1: 10 (8) n (%)
  Stomatitis TRAE, maximum severity Grade 2: 9 (7) n (%)
  Stomatitis TRAE, maximum severity Grade 3: 2 (2) n (%)
  Stomatitis TRAE, maximum severity Grade 4: 0 n (%)
  TRAEs leading to dose reduction, Any Grade: 11 (8) n(%)
  TRAEs leading to dose reduction, maximum severity Grade 1: 0 n(%)
  TRAEs leading to dose reduction, maximum severity Grade 2: 9 (7) n(%)
  TRAEs leading to dose reduction, maximum severity Grade 3: 2 n(%)
  TRAEs leading to dose reduction, maximum severity Grade 4: 0 n(%)
  TRAEs leading to treatment discontinuation, Any Grade: 1 (1) n(%)
  TRAEs leading to treatment discontinuation, maximum severity Grade 1: 0 n(%)
  TRAEs leading to treatment discontinuation, maximum severity Grade 2: 0 n(%)
  TRAEs leading to treatment discontinuation, maximum severity Grade 3: 0 n(%)
  TRAEs leading to treatment discontinuation, maximum severity Grade 4: 1 (1) n(%)
  Vomiting TRAE, Any Grade: 36 (28) n (%)
  Vomiting TRAE, maximum severity Grade 1: 27 (21) n (%)
  Vomiting TRAE, maximum severity Grade 2: 9 (7) n (%)
  Vomiting TRAE, maximum severity Grade 3: 0 n (%)
  Vomiting TRAE, maximum severity Grade 4: 0 n (%)
[3]; [13]
  ALT elevation TRAE, maximum severity Grade 3: 1 (1)+ n(%)
  AST elevation TRAE, maximum severity Grade 3: 1 (1)+ n(%)
[3]; one PDAC (120 mg) due to PD, one NSCLC (200 mg) unknown cause reported as unrelated to Compound A
  Discontinuation of study treatment due to death: Two patients discontinued study treatment due to death
[3]; one patient with PDAC treated at 80 mg, at the site of an invasive tumor
  Grade 4 TRAE (leading to treatment discontinuation): large intestine perforation
[4]
  Effect on cancer cell lines in vitro: growth suppression and apoptosis
[5]; 10 mg/kg QD
  Tumor regressions in xenograft models: induces tumor regressions in sensitive models
[5]; 25 mg/kg QD
  Tumor regressions in xenograft models: induces tumor regressions in the majority of models
[5]; human xenograft tumor models, particularly KRAS^G12X
  Anti-tumor activity in vivo: significant anti-tumor activity
[6]
  Response, case report KRAS^G12V ovarian cancer: confirmed partial response
[7]; blood
  Exposure in patients versus dose: dose-dependent increases in exposure
[7]; patients
  Accumulation in the blood following repeated daily dosing: minimal accumulation
[7]; patients, FIG. 3
  Dose levels that achieved exposures that induced tumor regressions in human xenograft models with KRAS^G12X mutations in mice: greater than or equal to 80 mg
[8]; one patient with KRAS^G12V ovarian cancer, 10 mg QD, at C2D1
  Reduction in KRAS^G12V VAF: 60%
[8]; patients with NSCLC and PDAC dosed at 20-300 mg QD, FIG. 6
  Molecular response in ctDNA: reduction in ctDNA of the KRAS-mutated allele
[9]; [14]
  Disease control rate: 85%
  Overall response rate: 38%
[9]; [11]
  Response, case report KRAS^G12D NSCLC: confirmed partial response
[9]; one patient, 300 mg QD reduced to 200 mg QD due to fatigue, at week 6
  Response, case report KRAS^G12V NSCLC: confirmed complete response
[9]; one patient, 300 mg QD, within one week of start of treatment
  Clinical symptoms, case report KRAS^G12V NSCLC: clinical improvement in cough and dyspnea
